Columns and labels:
Format in all cases: in vivo
Myzus persicae = test: B.3 Green Peach Aphid (mixed life stages), systemic artificial diet test; conditions: 72 h, treated aphid diet, 3 days, read-out: mortality in comparison with untreated controls
Excerpt: For evaluating control of Green Peach Aphid through systemic means the test unit consisted of 96-well-microtiter plates containing liquid artificial diet under an artificial membrane. The compounds were formulated using a solution containing 75% v/v water and 25% v/v DMSO. Different concentrations of formulated compounds were pipetted into the aphid diet, using a custom-built pipette, at two replications. After application, 5-8 adult aphids were placed on the artificial membrane inside the microtiter plate wells. The aphids were then allowed to suck on the treated aphid diet and incubated at about 23±1° C. and about 50±5% relative humidity for 3 days. Aphid mortality and fecundity was then visually assessed.

Dichromothrips corbetti = test: B.7 Orchid Thrips, floral-immersion test; conditions: adult thrips, 72 hours after treatment, read-out: mortality in comparison with untreated controls
Experimental: Dichromothrips corbetti adults used for bioassay were obtained from a colony maintained continuously under laboratory conditions. For testing purposes, the test compound was diluted in a 1:1 mixture of acetone:water (vol:vol), plus Kinetic at a rate of 0.01% v/v.
Thrips potency of each compound was evaluated by using a floral-immersion technique. Each orchid petal was dipped into treatment solution and allowed to dry in Petri dishes. Treated petals were placed into individual re-sealable plastic along with about 20 adult thrips. All test arenas were held under dark condition and a temperature of about 28° C. for duration of the assay. The percent mortality was recorded 72 hours after treatment.

Nezara viridula = test: B.8 Green Soldier Stink Bug, soybean pod spray test; conditions: 120 h, late 3rd instar, after 5 days, read-out: mortality in comparison with untreated controls
Experimental: The active compound was dissolved at the desired concentration in a mixture of 1:1 (vol:vol) distilled water:aceteone. Surfactant (Kinetic) was added at a rate of 0.01% (vol/vol). The test solution was prepared at the day of use. Soybean pods were placed in 90×50 mm glass Petri dishes lined with moistened filter paper and inoculated with ten late 3rd instar N. viridula. Using a hand atomizer, an approximately 2 ml solution was sprayed into each Petri dish. Treated setup was kept at about 25-26° C. and relative humidity of about 65-70%. Percent mortality was recorded after 5 days.

Heliothis virescens = test: B.4 Tobacco Budworm, microtiter plate diet test; conditions: 120 h, egg and larval mortality, 5 days, read-out: mortality in comparison with untreated controls
Experimental: For evaluating control of Tobacco Budworm, the test unit consisted of 96-well-microtiter plates containing an insect diet and 15-25 H. virescens eggs. The compounds were formulated using a solution containing 75% v/v water and 25% v/v DMSO. Different concentrations of formulated compounds were sprayed onto the insect diet at 10 μl, using a custom-built micro atomizer, at two replications. After application, microtiter plates were incubated at about 28±1° C. and about 80±5% relative humidity for 5 days. Egg and larval mortality was then visually assessed.

Anthonomus grandis = test: B.1 Boll weevil (Anthonomus grandis), 96-well microtiter plate diet test; conditions: 120 h, egg and larval mortality, 5 days, read-out: mortality in comparison with untreated controls
Experimental: For evaluating control of boll weevil, the test unit consisted of 96-well-microtiter plates containing an insect diet and 5-10 A. grandis eggs.
The compounds were formulated using a solution containing 75% v/v water and 25% v/v DMSO. Different concentrations of formulated compounds were sprayed onto the insect diet at 5 μl, using a custom-built micro atomizer, at two replications.
After application, microtiter plates were incubated at about 25±1° C. and about 75±5% relative humidity for 5 days. Egg and larval mortality were then visually assessed.

Plutella xylostella = test: B.6 Diamond Back Moth, cabbage leaf disc dip test; conditions: foliar, 3rd instar larvae, 72 hours after treatment, read-out: mortality in comparison with untreated controls
Experimental: The active compound was dissolved at the desired concentration in a mixture of 1:1 (vol:vol) distilled water:acetone. Surfactant (Kinetic) was added at a rate of 0.01% (vol/vol). The test solution was prepared at the day of use. Cabbage leaf discs (60 mm in diameter) were dipped in test solution and air-dried. Treated leaves were placed in petri dishes lined with moistened filter paper and inoculated with ten 3rd instar larvae. Mortality was recorded 72 hours after treatment. Feeding damages were also recorded using a scale of 0-100%.

Aedes aegypti = test: whole plant or invertebrate; conditions: 48 h, larval mortality, 2 days, read-out: mortality in comparison with untreated controls
Experimental: For evaluating control of Yellow Fever Mosquito, the test unit consisted of 96-well-microtiter plates containing 200 μl of tap water per well and 5-15 freshly hatched A. aegypti larvae. The active compounds were formulated using a solution containing 75% (v/v) water and 25% (v/v) DMSO. Different concentrations of formulated compounds or mixtures were sprayed onto the insect diet at 2.5 μl, using a custom-built micro atomizer, at two replications.
After application, microtiter plates were incubated at 28±1° C., 80±5% RH for 2 days. Larval mortality was then visually assessed.

Spodoptera eridania = test: B.11 Southern Armyworm 2nd instar larvae, lima bean foliar spray test; conditions: 96 h, 4 days after treatment, read-out: mortality in comparison with untreated controls
Experimental: The active compounds were formulated by a Tecan liquid handler in 100% cyclohexanone as a 10′000 ppm solution supplied in tubes. The 10′000 ppm solution was serially diluted in 100% cyclohexanone to make interim solutions. These served as stock solutions for which final dilutions were made by the Tecan in 50% acetone:50% water (v/v) into 10 or 20 ml glass vials. A nonionic surfactant (Kinetic®) was included in the solution at a volume of 0.01% (v/v). The vials were then inserted into an automated electrostatic sprayer equipped with an atomizing nozzle for application to plants/insects. Lima bean plants (variety Sieva) were grown 2 plants to a pot and selected for treatment at the 1st true leaf stage. Test solutions were sprayed onto the foliage by an automated electrostatic plant sprayer equipped with an atomizing spray nozzle. The plants were dried in the sprayer fume hood and then removed from the sprayer. Each pot was placed into perforated plastic bags with a zip closure. Ten to 11 armyworm larvae were placed into the bag and the bags zipped closed. Test plants were maintained in a growth room at about 25° C. and about 20-40% relative humidity for 4 days, avoiding direct exposure to fluorescent light (14:10 light:dark photo-period) to prevent trapping of heat inside the bags. Mortality and reduced feeding were assessed 4 days after treatment, compared to untreated control plants.

Nephotettix virescens = test: B.9 Rice Green Leafhopper, rice seedling spray test; conditions: adults, after 72 hours, read-out: mortality in comparison with untreated controls
Experimental: Four to five-week old rice seedlings with cut upper leaf portion were cleaned and washed 24 hours before spraying. The active compounds were formulated in 1:1 acetone:water (vol:vol), and 0.01% vol/vol surfactant (Kinetic) was added. Potted rice seedlings were sprayed with 5-6 ml test solution, air dried, covered with Mylar cages and inoculated with 10 adults. Treated rice plants were kept at about 28-29° C. and relative humidity of about 50-60%. Percent mortality was recorded after 72 hours.

Tetranychus kanzawai = test: B.10 Red Spider Mite, cowpea bean spray test; conditions: 72 hours after treatment, read-out: mortality in comparison with untreated controls
Experimental: The active compound was dissolved at the desired concentration in a mixture of 1:1 (vol:vol) distilled water:acetone. Add surfactant (Kinetic) was added at a rate of 0.01% (vol/vol). The test solution was prepared at the day of use. Potted cowpea beans of 4-5 days of age were cleaned with tap water and sprayed with I-2 ml of the test solution using air driven DeVilbiss® hand atomizer at 20-30 psi (≈1,38 to 2,07 bar). The treated plants were allowed to air dry and afterwards inoculated with 30 or more mites by clipping a cassava leaf section from rearing population. Treated plants were placed inside a holding room at about 25-26° C. and about 65-70% relative humidity. Percent mortality was assessed 72 hours after treatment.

Bemisia argentifolii = test: B.12 Silverleaf Whitefly (adults), cotton plant spray test; conditions: 72 h, 3 days after treatment, read-out: mortality in comparison with untreated controls
Experimental: The active compounds were formulated by a Tecan liquid handler in 100% cyclohexanone as a 10,000-ppm solution supplied in tubes. The 10,000-ppm solution was serially diluted in 100% cyclohexanone to make interim solutions. These served as stock solutions for which final dilutions were made by the Tecan in 50% acetone:50% water (v/v) into 5 or 10 ml glass vials. A nonionic surfactant (Kinetic®) was included in the solution at a volume of 0.01% (v/v). The vials were then inserted into an automated electrostatic sprayer equipped with an atomizing nozzle for application to plants/insects. Cotton plants at the cotyledon stage (one plant per pot) were sprayed by an automated electrostatic plant sprayer equipped with an atomizing spray nozzle. The plants were dried in the sprayer fume hood and then removed from the sprayer. Each pot was placed into a plastic cup and about 10 to 12 whitefly adults (approximately 3-5 days old) were introduced. The insects were collected using an aspirator and a nontoxic Tygon® tubing connected to a barrier pipette tip. The tip, containing the collected insects, was then gently inserted into the soil containing the treated plant, allowing insects to crawl out of the tip to reach the foliage for feeding. Cups were covered with a reusable screened lid. Test plants were maintained in a growth room at about 25° C. and about 20-40% relative humidity for 3 days, avoiding direct exposure to fluorescent light (14:10 light:dark photoperiod) to prevent trapping of heat inside the cup. Mortality was assessed 3 days after treatment, compared to untreated control plants.

Nc1c(F)ccc(NC(=O)c2cc(NC3=NOC(c4cc(Cl)cc(Cl)c4)(C(F)(F)F)C3)ccc2Cl)c1F (stereo not drawn) [I-4, N-(3-amino-2,4-difluoro-phenyl)-2-chloro-5-[[5-(3,5-dichlorophenyl)-5-(trifluoromethyl)-4H-isoxazol-3-yl]amino]benzamide]
≥ 75%: mortality at 2500 ppm (Myzus persicae) | mortality at 300 ppm (Dichromothrips corbetti) | mortality at 300 ppm (Nezara viridula) | mortality at 2500 ppm (Heliothis virescens) | mortality at 2500 ppm (Anthonomus grandis) | mortality at 300 ppm (Plutella xylostella) | mortality at 2500 ppm (Aedes aegypti)

N#CC1(NC(=O)c2cc(N(CC3CC3)C3=NOC(c4cc(Cl)cc(Cl)c4)(C(F)(F)F)C3)ccc2Cl)CC1 (stereo not drawn) [I-60, 2-chloro-N-(1-cyanocyclopropyl)-5-[cyclopropylmethyl-[5-(3,5-dichlorophenyl)-5-(trifluoromethyl)-4H-isoxazol-3-yl]amino]benzamide]
≥ 75%: mortality at 300 ppm (Dichromothrips corbetti) | mortality at 300 ppm (Spodoptera eridania) | mortality at 300 ppm (Nezara viridula) | mortality at 300 ppm (Nephotettix virescens) | mortality at 300 ppm (Plutella xylostella)

O=C(NC1C[S+]([O-])C1)c1cc(NC2=NOC(c3cc(Cl)c(F)c(Cl)c3)(C(F)(F)F)C2)ccc1Cl (stereo not drawn) [I-61, 2-chloro-5-[[5-(3,5-dichloro-4-fluoro-phenyl)-5-(trifluoromethyl)-4H-isoxazol-3-yl]amino]-N-(1-oxothietan-3-yl)benzamide]
≥ 75%: mortality at 300 ppm (Tetranychus kanzawai) | mortality at 300 ppm (Dichromothrips corbetti) | mortality at 300 ppm (Spodoptera eridania) | mortality at 300 ppm (Plutella xylostella)

CCOC(=O)N(C1=NOC(c2cc(Cl)cc(Cl)c2)(C(F)(F)F)C1)c1ccc(Cl)c(C(=O)NC2(C#N)CC2)c1 (stereo not drawn) [I-111, ethyl N-[4-chloro-3-[(1-cyanocyclopropyl)carbamoyl]phenyl]-N-[5-(3,5-dichlorophenyl)-5-(trifluoromethyl)-4H-isoxazol-3-yl]carbamate]
≥ 75%: mortality at 300 ppm (Tetranychus kanzawai) | mortality at 300 ppm (Dichromothrips corbetti) | mortality at 300 ppm (Spodoptera eridania) | mortality at 300 ppm (Nezara viridula) | mortality at 300 ppm (Bemisia argentifolii) | mortality at 300 ppm (Plutella xylostella)

CCN1OC[C@@H](NC(=O)c2cc(N(C)C3=NOC(c4cc(Cl)c(F)c(Cl)c4)(C(F)(F)F)C3)ccc2Cl)C1=O (stereo partly drawn) [I-119, 2-chloro-5-[[5-(3,5-dichloro-4-fluoro-phenyl)-5-(trifluoromethyl)-4H-isoxazol-3-yl]-methyl-amino]-N-[(4R)-2-ethyl-3-oxo-isoxazolidin-4-yl]benzamide]
≥ 75%: mortality at 300 ppm (Dichromothrips corbetti) | mortality at 300 ppm (Nezara viridula) | mortality at 300 ppm (Nephotettix virescens) | mortality at 300 ppm (Plutella xylostella)

O=C(Nc1ccc(F)cc1F)c1cc(NC2=NOC(c3cc(Cl)cc(Cl)c3)(C(F)(F)Cl)C2)ccc1Cl (stereo not drawn) [I-131, 2-chloro-5-[[5-[chloro(difluoro)methyl]-5-(3,5-dichlorophenyl)-4H-isoxazol-3-yl]amino]-N-(2,4-difluorophenyl)benzamide]
≥ 75%: mortality at 2500 ppm (Myzus persicae) | mortality at 300 ppm (Dichromothrips corbetti) | mortality at 300 ppm (Spodoptera eridania) | mortality at 2500 ppm (Heliothis virescens) | mortality at 2500 ppm (Anthonomus grandis) | mortality at 300 ppm (Plutella xylostella) | mortality at 2500 ppm (Aedes aegypti)
